Earlier results in patent US10179139B2, “Pharmaceutical composition” (CIPLA Limited, priority 2010, dated 2019).

Conditions: in vivo

SMILES	duration of action
C[N+]1(C)[C@@H]2C[C@@H](OC(=O)C(O)(c3cccs3)c3cccs3)C[C@H]1[C@@H]1O[C@@H]12 [Tiotropium, (1α, 2β, 4β, 5α, 7β)-7-[(Hydroxydi-2-thienylacetyl)oxy]-9,9-dimethyl-3-oxa-9-azoniatricyclo[3.3.1.0^2,4]nonane bromide monohydrate]	up to 32 hours
CCc1cc2c(cc1CC)CC(NC[C@H](O)c1ccc(O)c3[nH]c(=O)ccc13)C2 [Indacaterol, (R)-5-[2-[(5,6-Diethyl-2,3-dihydro-1H-inden-2-yl)amino]-1-hydroxyethyl]-8-hydroxyquinolin-2(1H)-one]	more than 24 hrs
